Test results taken from US11207320B2, “Compositions and methods for cancer expressing PDE3A or SLFN12” (The Broad Institute, Inc., priority 2015, dated 2021).
One block for each molecule: values may come before it.

Columns and labels:
HeLa cells [1] = format: cell-based; settings: 48 hours; for rescue of DNMDP cytotoxicity / competition with DNMDP: dose-response up to 10 μM, co-treated with DNMDP; for rescue of cell death induced by DNMDP, rank in bioactives screen: 20 μM compound + 30 nM DNMDP, 1600 compounds
Protocol: HeLa cells were co-treated with 30 nM DNMDP (the EC70 concentration) and 20 μM of each bioactive compound. Cell viability after 48-hour treatment was assessed by ATP consumption as described earlier.
1000 HeLa cells were plated in a 384-well plate in 40 μl of DMEM supplemented with 10% Fetal Bovine Serum and 1% Pen/Strep. 24 hours after plating, a compound-library of 1600 bioactive molecules (Pharmacon) was added at a concentration of 20 μM. In parallel to bioactive compound incubation, DNMDP was added to a final concentration of 30 nM and incubated for 48 hours. Cell viability was assessed as described in Compound library screening in NCI-H1734 and A549 cell lines.

HeLa cells [2] = test: Compound sensitivity testing in cell lines (48 h viability); format: cell-based; settings: HeLa
Protocol: 1500 NCI-H1734 or 1000 A549 cells were plated in a 384-well plate in 40 μl of RPMI supplemented with 10% Fetal Bovine Serum and 1% Pen/Strep. 24 hours after plating, a compound-library of 1924 small molecules was added at a concentration of 10 μM. Staurosporine was used a positive control for cytotoxicity at a concentration of 10 μM, and DMSO was used a negative control at a concentration of 1%. All compounds were incubated for 48 hours with indicated small molecules. After 48 hours, 384-well plates were removed from the incubator and allowed to cool to room temperature for 20 minutes. Cell viability was assessed by adding 40 μl of a 25% CELLTITERGLO® (Promega) in PBS with a THERMO COMBI™ or multichannel-pipette and incubated for 10 minutes. The luminescence signal was read using a Perkin-Elmer EnVision. Viability percentage was calculated by normalizing to DMSO controls.
1000 HeLa (DMEM), 1000 A549 (RPMI), 500 MCF-7 (DMEM), 4000 PC3 (F12-K), 1000 NCI-H2122 (RPMI) or 1500 NCI-H1563 (RPMI) cells were plated in a 384-well plate in 40 μl of corresponding growth media supplemented with 10% Fetal Bovine Serum. 24 hours after plating, indicated compounds were added at indicated concentrations and incubated for 48 hours. Cell viability was assessed as described in Compound library screening in NCI-H1734 and A549 cell lines.

PDE3A = PDE3A (Homo sapiens, UniProt Q14432); test: Linker-affinity purification of molecular target of DNMDP and immunoblotting; format: binding; design: Immunoprecipitation of endogenous PDE3A in HeLa cells; endogenous in cells; host or cells: HeLa; settings: HeLa cell lysate, competitor 10 μM, immunoblot for PDE3A
Protocol: To identify the molecular target of DNMDP, an affinity purification was performed using an (R)-des-nitro-DNMDP solid-phase tethered linker analogue (FIG. 10A) incubated with HeLa cell lysate. […] It was competed for the molecular target by adding either an excess of trequinsin or separate enantiomers of DNMDP, where only the (R)-enantiomer was cytotoxic. […] Binding of PDE3A to the linker analogue was blocked by both trequinsin and (R)-DNMDP, but not by the non-cytotoxic enantiomer (S)-[…]. 9C). Thus both trequinsin and (R)-DNMDP prevented the binding of PDE3A to the tethered DNMDP analogue, and it was concluded that both molecules bind PDE3A directly. HeLa cells were washed with ice-cold PBS before lysed with NP-40 lysis buffer (150 mM NaCl, 10% glycerol, 50 mM Tris-Cl pH 8.0, 50 mM MgCl2, 1% NP-40) supplemented with EDTA-free protease inhibitors (Roche) and phosphatase inhibitor mixtures I and II (Calbiochem). […] Samples were washed three times with lysis buffer containing corresponding compound concentrations of 10 μM. Proteins bound to Affi-Gel 102 resin were reduced, denatured, and separated using Tris-Glycine gels (Novex) and transferred to nitrocellulose membranes using the iBlot transfer system (Novex). Membranes were incubated overnight at 4° C. with primary antibodies against PDE3A (1:1000, Bethyl). […]

PDE3A and SLFN12 = molecular target: T1, PDE3A and SLFN12 (Homo sapiens, UniProt Q14432); test: Validation of DNMDP-induced PDE3A protein interactions using immunoprecipitation and immunoblotting; format: cell-based; settings: FIG. 20, affinity reagents, immunoblot
T1 construct: Endogenous PDE3A was immunoprecipitated; host or cells: HeLa
Protocol: FIG. 19 is an immunoblot showing that DNMDP induces interaction between PDE3A and SIRT7 and SLFN12 in HeLa cells. HeLa cells were transfected with indicated plasmids and treated with indicated compounds with a final concentration of 10 μM for four hours. Endogenous PDE3A was immunoprecipitated and immunoblotted for V5 to identify novel interaction with SIRT7 and SLFN12 (upper two panels). Immunoprecipitate input was immunoblotted for PDE3A and V5 (lower two panels). V5-SLFN12 was undetectable in whole cell lysate.
FIG. 20 is an immunoblot showing confirmation of mass spectrometric results herein using affinity reagents.
HeLa cells were transfected with ORF overexpression constructs expressing V5-tagged SIRT7, V5-tagged SLFN12, or V5-tagged GFP. ORF expression constructs were obtained from the TRC (clone IDs: TRCN0000468231, TRCN0000476272, ccsbBroad304_99997). At 72 hours post transfection, cells were treated with 10 μM DNMDP or trequinsin for 4 hours followed by lysis using the ModRipa lysis buffer and immunoprecipitation of PDE3A. For each condition, 2 mg total protein lysate was incubated with 1 μg of anti-PDE3A antibody at 4° C. overnight, after which 7.5 μl each of Protein A- and Protein G-Dynabeads (Life Technologies 10001D and 10003D) were added and incubated for another 1 hour. Beads were washed and bound proteins were eluted with 30 μl of LDS PAGE gel loading buffer. Input (˜60 μg total protein lysate) and IP products were resolved on 4-12% Tris-Glycine PAGE gels and immunoblotted with an anti-V5 antibody (Life Technologies R96205, 1:5000), the Bethyl anti-PDE3A antibody (1:1000), and secondary antibodies from LiCOR Biosciences (Cat.#926-32210 and 926068021, each at 1:10,000). Blots were washed and imaged using a LiCOR Odyssey infrared imager.

PDE3A(677-1141) = molecular target: T2, PDE3A(677-1141) (Homo sapiens, UniProt Q14432); test: Differential scanning fluorimetry (DSF) binding; settings: 5 μM protein, 100 μM compound
T2 construct: purified PDE3A catalytic domain, PDE3A(677-1141)
Protocol: Binding buffer: 20 mM Hepes pH 7.4, 100 μM TCEP, 1 mM MgCl2, 150 mM NaCl.

HeLa cells [3] = test: DNMDP cytotoxicity after targeting PDE3A locus using CRISPR; format: cell-based; settings: HeLa infected with Cas9 and sgRNAs against PDE3A
Protocol: FIG. 11A is a Western blot. HeLa cells were infected with Cas9 and indicated guide RNAs (sgRNA) against PDE3A. Western blots were probed for PDE3A at indicated time points. FIG. 11B is a bar graph showing percent rescue of HeLa cells that were infected with indicated sgRNAs for two weeks and treated with 1 μM of 6-(4-(diethylamino)-3-nitrophenyl)-5-methyl-4,5-dihydropyridazin-3(2H)-one (DNMDP) for 48 hours. Percent rescue was normalized to the Cas9-only control. FIG. 11C is a plot showing viability of cells infected with indicated sgRNAs and treated with various concentrations of 6-(4-(diethylamino)-3-nitrophenyl)-5-methyl-4,5-dihydropyridazin-3(2H)-one (DNMDP).
Based on the observations that DNMDP-sensitive cells expressed high levels of PDE3A, and that DNMDP competed with non-cytotoxic inhibitors for PDE3A binding, it was hypothesized that DNMDP mediated its cytotoxic phenotype through the interaction with PDE3A and that PDE3A abundance was a direct cellular determinant of DNMDP sensitivity. To validate this hypothesis, the effect of reducing levels of PDE3A on the response to DNMDP was tested. […] In an independent approach using an siRNA smart-pool containing four different siRNAs targeting PDE3A, PDE3A expression was reduced in HeLa cell line with a maximum efficiency of 70% between 24 and 72 hours after transfection. […]

T2 sequence (Q14432 677-1141): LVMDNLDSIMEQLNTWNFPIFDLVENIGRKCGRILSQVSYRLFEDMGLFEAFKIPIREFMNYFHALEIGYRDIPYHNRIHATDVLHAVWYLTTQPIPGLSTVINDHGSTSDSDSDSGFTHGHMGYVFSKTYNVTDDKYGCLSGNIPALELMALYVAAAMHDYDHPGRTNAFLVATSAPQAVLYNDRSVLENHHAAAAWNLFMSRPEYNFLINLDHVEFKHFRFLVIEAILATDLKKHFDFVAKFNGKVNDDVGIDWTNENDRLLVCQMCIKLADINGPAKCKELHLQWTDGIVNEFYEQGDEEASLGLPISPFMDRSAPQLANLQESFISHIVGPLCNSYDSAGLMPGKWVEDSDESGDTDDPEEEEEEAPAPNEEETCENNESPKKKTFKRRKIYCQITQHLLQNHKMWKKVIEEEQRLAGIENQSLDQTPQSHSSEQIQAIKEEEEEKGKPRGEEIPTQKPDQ
T1 sequence (Q14432 whole entry): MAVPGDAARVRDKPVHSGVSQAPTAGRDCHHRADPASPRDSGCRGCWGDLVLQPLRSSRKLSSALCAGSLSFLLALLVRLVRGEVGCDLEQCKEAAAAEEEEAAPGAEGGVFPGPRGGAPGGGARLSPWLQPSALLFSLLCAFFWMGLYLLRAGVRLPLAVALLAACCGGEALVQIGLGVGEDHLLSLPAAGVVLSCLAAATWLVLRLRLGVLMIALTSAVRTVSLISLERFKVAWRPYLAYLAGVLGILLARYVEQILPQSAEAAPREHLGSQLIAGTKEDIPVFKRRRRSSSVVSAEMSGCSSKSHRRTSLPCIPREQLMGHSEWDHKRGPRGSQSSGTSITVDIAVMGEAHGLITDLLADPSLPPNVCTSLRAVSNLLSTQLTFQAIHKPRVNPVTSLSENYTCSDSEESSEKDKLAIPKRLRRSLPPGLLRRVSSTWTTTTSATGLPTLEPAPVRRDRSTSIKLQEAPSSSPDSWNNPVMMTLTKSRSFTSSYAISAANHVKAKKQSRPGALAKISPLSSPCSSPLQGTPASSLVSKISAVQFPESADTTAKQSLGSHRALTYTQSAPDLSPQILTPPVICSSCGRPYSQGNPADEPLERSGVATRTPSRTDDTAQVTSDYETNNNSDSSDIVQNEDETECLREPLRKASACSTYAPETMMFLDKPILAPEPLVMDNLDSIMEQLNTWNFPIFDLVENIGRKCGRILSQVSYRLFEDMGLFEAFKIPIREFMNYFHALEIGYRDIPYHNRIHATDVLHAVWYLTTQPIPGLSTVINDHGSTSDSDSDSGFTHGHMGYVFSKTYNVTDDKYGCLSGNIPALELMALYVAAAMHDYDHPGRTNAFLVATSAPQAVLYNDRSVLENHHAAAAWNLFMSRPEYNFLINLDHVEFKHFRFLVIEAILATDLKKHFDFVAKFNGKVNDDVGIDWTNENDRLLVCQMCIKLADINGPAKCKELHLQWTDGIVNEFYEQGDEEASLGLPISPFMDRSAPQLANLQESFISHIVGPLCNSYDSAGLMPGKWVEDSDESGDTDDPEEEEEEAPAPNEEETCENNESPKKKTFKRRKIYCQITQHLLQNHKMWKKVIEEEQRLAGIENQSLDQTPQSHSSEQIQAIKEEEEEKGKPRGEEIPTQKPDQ
T1 sequence (Q8IYM2 whole entry partner): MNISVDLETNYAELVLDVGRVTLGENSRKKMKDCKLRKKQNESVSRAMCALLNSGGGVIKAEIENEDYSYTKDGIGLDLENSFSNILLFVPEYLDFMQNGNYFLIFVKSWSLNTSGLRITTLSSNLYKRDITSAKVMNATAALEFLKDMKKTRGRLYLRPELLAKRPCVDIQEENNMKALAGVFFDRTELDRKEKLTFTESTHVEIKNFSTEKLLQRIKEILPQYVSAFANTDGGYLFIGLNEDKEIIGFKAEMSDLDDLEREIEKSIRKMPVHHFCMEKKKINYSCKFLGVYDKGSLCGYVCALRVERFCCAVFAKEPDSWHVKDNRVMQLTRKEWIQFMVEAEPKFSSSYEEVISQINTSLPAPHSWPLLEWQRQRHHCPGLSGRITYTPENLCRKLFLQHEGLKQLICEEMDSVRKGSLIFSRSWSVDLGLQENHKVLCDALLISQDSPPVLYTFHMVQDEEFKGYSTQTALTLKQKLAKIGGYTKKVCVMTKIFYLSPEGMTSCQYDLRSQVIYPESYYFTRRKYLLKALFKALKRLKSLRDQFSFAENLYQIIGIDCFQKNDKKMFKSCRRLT
Sequence of PDE3A (Q14432 whole entry): as the sequence (Q14432 whole entry) above

SMILES: CCCc1nc(C)c2c(=O)[nH]c(-c3cc(S(=O)(=O)N4CCN(CC)CC4)ccc3OCC)nn12 [vardenafil, 4-[2-ethoxy-5-(4-ethylpiperazin-1-yl)sulfonyl-phenyl]-9-methyl-7-propyl-3,5,6,8-tetrazabicyclo[4.3.0]nona-3,7,9-trien-2-one]
rescue of DNMDP cytotoxicity / competition with DNMDP (HeLa cells [1]): not effective competitors

SMILES: CN(C(=O)CCCOc1ccc2[nH]c(=O)ccc2c1)C1CCCCC1 [cilostamide]
rescue of DNMDP cytotoxicity / competition with DNMDP (HeLa cells [1]): able to rescue DNMDP cytotoxicity in a dose-dependent manner

SMILES: O=C1CCc2cc(OCCCCc3nnnn3C3CCCCC3)ccc2N1 [cilostazol, 6-[4-(1-cyclohexyl-1H-tetrazol-5-yl)butoxy]-3,4-dihydro-2(1H)-quinolinone]
rescue of cell death induced by DNMDP, rank in bioactives screen (HeLa cells [1]): three most potent compounds

fold lower EC50 compared to the (S)-enantiomer (HeLa cells [2]): 500 fold
blocking of binding of PDE3A to the tethered linker analogue (PDE3A): blocked
SMILES: CCN(CC)c1ccc(C2=NNC(=O)C[C@H]2C)cc1[N+](=O)[O-] [(R)-DNMDP, (R)-6-(4-(diethylamino)-3-nitrophenyl)-5-methyl-4,5-dihydropyridazin-3(2H)-one]
effect on HeLa cell viability / cytotoxicity (HeLa cells [2]): cytotoxic

SMILES: Cc1[nH]c(=O)c(C#N)cc1-c1ccncc1 [milrinone, 2-methyl-6-oxo-1,6-dihydro-3,4′-bipyridine-5-carbonitrile]
rescue of cell death induced by DNMDP, rank in bioactives screen (HeLa cells [1]): three most potent compounds
rescue of DNMDP cytotoxicity / competition with DNMDP (HeLa cells [1]): able to rescue DNMDP cytotoxicity in a dose-dependent manner

SMILES: CCN(CCOCCOCCNC(=O)OC(C)(C)C)c1ccc(C2=NNC(=O)C[C@H]2C)cc1 [DNMDP-2L, tert-butyl (R)-(2-(2-(2-(ethyl(4-(4-methyl-6-oxo-1,4,5,6-tetrahydropyridazin-3-yl)phenyl)amino)ethoxy)ethoxy)ethyl)carbamate]
rescue of DNMDP cytotoxicity / competition with DNMDP (HeLa cells [1]): same DNMDP cytotoxicity rescue phenotype as non-cytotoxic PDE3 inhibitors

PDE3A and SLFN12 complex formation (PDE3A and SLFN12): weakly
Tm (° C.) (PDE3A(677-1141)): 56.6 ± 0.0 °C
ΔTm at 100 µM (PDE3A(677-1141)): 4.2 °C
SMILES: O=C1CN2Cc3c(ccc(Cl)c3Cl)N=C2N1 [anagrelide, 6,7-dichloro-1,5-dihydroimidazo (2,1-b)quinazolin-2(3H)-one]

SMILES: CCCc1nn(C)c2c(=O)[nH]c(-c3cc(S(=O)(=O)N4CCN(C)CC4)ccc3OCC)nc12 [sildenafil, 1-[4-ethoxy-3-(6,7-dihydro-1-methyl-7-oxo-3-propyl-1H-pyrazolo[4,3-d]pyrimidin-5-yl)phenylsulfonyl]-4-methylpiperazine]
rescue of DNMDP cytotoxicity / competition with DNMDP (HeLa cells [1]): not effective competitors

SMILES: C[C@@H]1CC(=O)NN=C1c1ccc(N2CCOCC2)cc1 [Compound 3]
rescue of toxicity by PDE3A sgRNA2 and sgRNA3 (HeLa cells [3]): significant rescue of toxicity

SMILES: CC(C)C(=O)c1c(C(C)C)nn2ccccc12 [idubulast]
rescue of DNMDP cytotoxicity / competition with DNMDP (HeLa cells [1]): not effective competitors

SMILES: CCN(CC)c1ccc(C2=NNC(=O)C[C@@H]2C)cc1[N+](=O)[O-] [(S)-DNMDP]
effect on HeLa cell viability / cytotoxicity (HeLa cells [2]): non-cytotoxic
